Test results from patent US20070154906A1, “Methods to identify therapeutic candidates” (Spirogen Ltd., priority 2005, published 2007).
pIC50: −log10 of the molar value.

Legend:
[1] = tested on: MS2 DNA fragment (MS2F and MS2R); assay: DNase I footprinting on MS2 DNA fragment; type: binding; conditions: for footprint shape at position H (footnote 1) / footprint shape at position J (footnote 2): MS2 DNA fragment; for footprint shape at position H (footnote 1): site H; for footprint shape at position J (footnote 2): site J
Method: The sequence selectivity of the six PBD-pyrrole conjugates (GWL 77, GWL 78, GWL 79, GWL 80, GWL 81 and GWL 82) was evaluated by standard DNA footprinting on a fragment of MS2 as follows, in accordance with the technique described in Martin, Biochemistry (2005) 44:4135-4147.
The vast majority of footprint sites are common features in the binding profiles of all six conjugates, with only a small number of sites being footprinted by a subset of the family. Even more unexpectedly, no site is footprinted by only one molecule (in fact, the fewest number of conjugates that bind at any single site is four). The differential cleavage plot in FIG. 5 provides footprinting profiles at a supramaximal concentration color-coded for each conjugate which illustrates a striking degree of overlap. Although there is no conspicuous change in footprinting patterns as the number of pyrroles units in each conjugate increases, there are changes in two other features, namely, the apparent binding affinity and the width of the footprinted site. […] To simplify comparison between molecules, only the most significant footprint site (5′-^62[…]^70−3′/3′-[…]-5′) (SEQ ID NO:24) was selected for comparison. When the binding affinity of each molecule is compared to the relative number of pyrrole units it contains, a parabolic relationship is observed. By this method, GWL 80 (four pyrroles) appears to be the strongest binder with a DNase IC50 of around 30 nM. Conjugate GWL 79 (three pyrroles) and GWL 81 (five pyrroles) follow closely with affinities in the region of 30-100 nM. […] Finally, GWL 77 (one pyrrole) is a particularly weak footprinting molecule with an DNase IC50 of about, or in excess of, 10 μM.

[2] = tested on: MCF-7 human mammary cells; assay: Cellular uptake and nuclear incorporation, confocal microscopy; type: cell-based; conditions: for nuclear uptake: 200 μM over 24 hour; for time to cellular uptake / detection: MCF-7 cells; for nuclear fluorescence: highest drug concentrations, exposure time 24 hour
Method: Cellular uptake and nuclear incorporation of drug into MCF-7 human mammary cells was visualized using confocal microscopy. Conjugates GWL 77, GWL78, GWL 79, GWL 80 and GWL 81 were prepared in DMSO at 20 mM and diluted in RPMI to the appropriate concentration. Freshly harvested MCF7 cells at 5×10^4 cells/ml were placed in 200 μl of complete RPMI1640 (containing 10% FCS) into the wells of 8-well chambered cover-glasses. Cells were left overnight to adhere at 37° C. […] At 1, 5 and 24 hours after addition of conjugates, the cells were examined using a Nikon TE2000 with UV filter set and viewed under oil immersion with the x63 objective lens.

[3] = tested on: K562 human chronic myeloid leukemia cells; assay: In vitro cytotoxicity assay (MTT); type: cell-based; conditions: K562, one hour exposure, MTT after four days
Method: In one aspect of this test, K562 human chronic myeloid leukemia cells are maintained in RPMI1640 medium supplemented with 10% fetal calf serum and 2 mM glutamine at 37° C. in a humidified atmosphere containing 5% CO2 and are incubated with a specified dose of drug for one hour at 37° C. in the dark. The incubation is terminated by centrifugation (5 min, 300 g) and the cells are washed once with drug-free medium. Following the appropriate drug treatment, the cells are transferred to 96-well microtiter plates (10^4 cells per well, 8 wells per sample). Plates are then kept in the dark at 37° C. in a humidified atmosphere containing 5% CO2. The assay is based on the ability of viable cells to reduce a yellow soluble tetrazolium salt, 3-(4,5-dimethylthiazol-2-yl)-2,5-diphenyl-2H-tetrazolium bromide (MTT, Aldrich-Sigma), to an insoluble purple formazan precipitate. Following incubation of the plates for four days (to allow control cells to increase in number by approximately 10 fold), 20 μL of MTT solution (5 mg/ml in phosphate-buffered saline) is added to each well and the plates further incubated for five hours. […] The optical density is then read at a wavelength of 550 nm on a […]™ (Titertek Labsystems, Finland) ELISA plate reader, and a dose-response curve is constructed. […]

[4] = differential cleavage analysis, compared with GWL 79

| SMILES | apparent binding affinity relative to GWL 79 ([1]; C11 versus GWL 79) | binding at positions K and L [1, 4] | footprints at positions D, M and G [1, 4] | nuclear uptake [2] | time to cellular uptake / detection [2] | nuclear fluorescence [2] | footprint at position G ([1]; differential cleavage analysis) | pIC50 ([1]; read-out: DNase IC50 (concentration of conjugate providing 50% inhibition of DNase I-mediated cleavage), site 5'-62CAATACACA70-3', estimated by eye from footprint images) | pIC50 [3] | footprint shape at position H (footnote 1) [1] | footprint shape at position J (footnote 2) [1] |
| --- | --- | --- | --- | --- | --- | --- | --- | --- | --- | --- | --- |
| COC(=O)c1cc(NC(=O)c2cc(NC(=O)c3cc(NC(=O)CCOc4cc5c(cc4OC)C(=O)N4CCC[C@H]4C=N5)cn3C)cn2C)cn1C [C11, reference compound] | 30-100 fold | much weaker binding | lack of footprints |  |  |  |  |  |  |  |  |
| COC(=O)c1cc(NC(=O)CCCOc2cc3c(cc2OC)C(=O)N2CCC[C@H]2C=N3)cn1C [GWL 77, (11aS) methyl 4-[4-(7-methoxy-5-oxo-2,3,5,11a-tetrahydro-5H-pyrrolo[2,1-c][1,4]benzodiazepine-8-yloxy)-butyrylamino]-1-methyl-1H-pyrrole-2-carboxylate] |  |  |  | clear nuclear uptake | < 1 h | strong nuclear fluorescence | footprinted | ≤ 5.00 | 7.29 |  |  |
| COC(=O)c1cc(NC(=O)c2cc(NC(=O)CCCOc3cc4c(cc3OC)C(=O)N3CCC[C@H]3C=N4)cn2C)cn1C [GWL 78, (11aS) methyl 4-({4-[4-(7-methoxy-5-oxo-2,3,5,11a-tetrahydro-5H-pyrrolo[2,1-c][1,4]benzodiazepine-8-yloxy)-butyrylamino]-1-methyl-1H-pyrrole-2-carbonyl}-amino)-1-methyl-1H-pyrrole-2-carboxylate] |  |  |  | clear nuclear uptake | 3 h | strong nuclear fluorescence | footprinted |  |  |  |  |
| COC(=O)c1cc(NC(=O)c2cc(NC(=O)c3cc(NC(=O)CCCOc4cc5c(cc4OC)C(=O)N4CCC[C@H]4C=N5)cn3C)cn2C)cn1C [GWL 79, (11aS) methyl 4-{[4-({4-[4-(7-methoxy-5-oxo-2,3,5,11a-tetrahydro-5H-pyrrolo[2,1-c][1,4]benzodiazepine-8-yloxy)-butyrylamino]-1-methyl-1H-pyrrole-2-carbonyl]-amino)-1-methyl-1H-pyrrole-2-carbonyl]-amino}-1-methyl-1H-pyrrole-2-carboxylate] |  |  |  | clear nuclear uptake | 3 h | strong nuclear fluorescence |  |  |  |  |  |
| COC(=O)c1cc(NC(=O)c2cc(NC(=O)c3cc(NC(=O)c4cc(NC(=O)CCCOc5cc6c(cc5OC)C(=O)N5CCC[C@H]5C=N6)cn4C)cn3C)cn2C)cn1C [GWL 80, (11aS) methyl 4-[(4-{[4-({4-[4-(7-methoxy-5-oxo-2,3,5,11a-tetrahydro-5H-pyrrolo[2,1-c][1,4]benzodiazepine-8-yloxy)-butyrylamino]-1-methyl-1H-pyrrole-2-carbonyl]-amino)-1-methyl-1H-pyrrole-2-carbonyl]-amino}-1-methyl-1H-pyrrole-2-carbonyl)-amino]-1-methyl-1H-pyrrole-2-carboxylate] |  |  |  |  |  | more diffuse throughout the cell | footprinted |  |  | ^127, 29, 31 show evidence of two closely juxtaposed footprints at this position | ^227, 29, 31 show evidence of two closely juxtaposed footprints at this position |
| COC(=O)c1cc(NC(=O)c2cc(NC(=O)c3cc(NC(=O)c4cc(NC(=O)c5cc(NC(=O)CCCOc6cc7c(cc6OC)C(=O)N6CCC[C@H]6C=N7)cn5C)cn4C)cn3C)cn2C)cn1C [GWL 81, (11aS) methyl 4-({4-[(4-{[4-({4-[4-(7-methoxy-5-oxo-2,3,5,11a-tetrahydro-5H-pyrrolo[2,1-c][1,4]benzodiazepine-8-yloxy)-butyrylamino]-1-methyl-1H-pyrrole-2-carbonyl]-amino)-1-methyl-1H-pyrrole-2-carbonyl]-amino}-1-methyl-1H-pyrrole-2-carbonyl)-amino]-1-methyl-1H-pyrrole-2-carbonyl}-amino)-1-methyl-1H-pyrrole-2-carboxylate] |  |  |  |  |  | more diffuse throughout the cell | footprinted |  |  | ^127, 29, 31 show evidence of two closely juxtaposed footprints at this position | ^227, 29, 31 show evidence of two closely juxtaposed footprints at this position |
| COC(=O)c1cc(NC(=O)c2cc(NC(=O)c3cc(NC(=O)c4cc(NC(=O)c5cc(NC(=O)c6cc(NC(=O)CCCOc7cc8c(cc7OC)C(=O)N7CCC[C@H]7C=N8)cn6C)cn5C)cn4C)cn3C)cn2C)cn1C [GWL 82, (11aS) methyl 4-{[4-({4-[(4-{[4-({4-[4-(7-methoxy-5-oxo-2,3,5,11a-tetrahydro-5H-pyrrolo[2,1-c][1,4]benzodiazepine-8-yloxy)-butyrylamino]-1-methyl-1H-pyrrole-2-carbonyl]-amino)-1-methyl-1H-pyrrole-2-carbonyl]-amino}-1-methyl-1H-pyrrole-2-carbonyl)-amino]-1-methyl-1H-pyrrole-2-carbonyl}-amino)-1-methyl-1H-pyrrole-2-carbonyl]-amino}-1-methyl-1H-pyrrole-2-carboxylate] |  |  |  |  |  | more diffuse throughout the cell |  |  | 7.49 | ^127, 29, 31 show evidence of two closely juxtaposed footprints at this position | ^227, 29, 31 show evidence of two closely juxtaposed footprints at this position |
